Counter-ions that a name gives are not always drawn. The source made the active and inactive calls.
Key:
Large T antigen = Large T antigen (Simian virus 40, UniProt P03070); type: functional, Betapolyomavirus macacae;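 note: Confirmatory-stage PubChem screen for compounds that inhibit SV40 T antigen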
[1] = target: Induced myeloid leukemia cell differentiation protein Mcl-1 (Homo sapiens, UniProt Q07820); type: functional
[2] = target: DNA (cytosine-5)-methyltransferase 1 (Homo sapiens, UniProt P26358); assay: DNMT1 methyltransferase inhibitors, confirmation, biochemical, fluorescent molecular beacon (AID 602386); type: functional
[3] = target: T1, Histone-lysine N-methyltransferase NSD2 (Homo sapiens, UniProt O96028); type: biochemical
T1 sequence (O96028 whole entry): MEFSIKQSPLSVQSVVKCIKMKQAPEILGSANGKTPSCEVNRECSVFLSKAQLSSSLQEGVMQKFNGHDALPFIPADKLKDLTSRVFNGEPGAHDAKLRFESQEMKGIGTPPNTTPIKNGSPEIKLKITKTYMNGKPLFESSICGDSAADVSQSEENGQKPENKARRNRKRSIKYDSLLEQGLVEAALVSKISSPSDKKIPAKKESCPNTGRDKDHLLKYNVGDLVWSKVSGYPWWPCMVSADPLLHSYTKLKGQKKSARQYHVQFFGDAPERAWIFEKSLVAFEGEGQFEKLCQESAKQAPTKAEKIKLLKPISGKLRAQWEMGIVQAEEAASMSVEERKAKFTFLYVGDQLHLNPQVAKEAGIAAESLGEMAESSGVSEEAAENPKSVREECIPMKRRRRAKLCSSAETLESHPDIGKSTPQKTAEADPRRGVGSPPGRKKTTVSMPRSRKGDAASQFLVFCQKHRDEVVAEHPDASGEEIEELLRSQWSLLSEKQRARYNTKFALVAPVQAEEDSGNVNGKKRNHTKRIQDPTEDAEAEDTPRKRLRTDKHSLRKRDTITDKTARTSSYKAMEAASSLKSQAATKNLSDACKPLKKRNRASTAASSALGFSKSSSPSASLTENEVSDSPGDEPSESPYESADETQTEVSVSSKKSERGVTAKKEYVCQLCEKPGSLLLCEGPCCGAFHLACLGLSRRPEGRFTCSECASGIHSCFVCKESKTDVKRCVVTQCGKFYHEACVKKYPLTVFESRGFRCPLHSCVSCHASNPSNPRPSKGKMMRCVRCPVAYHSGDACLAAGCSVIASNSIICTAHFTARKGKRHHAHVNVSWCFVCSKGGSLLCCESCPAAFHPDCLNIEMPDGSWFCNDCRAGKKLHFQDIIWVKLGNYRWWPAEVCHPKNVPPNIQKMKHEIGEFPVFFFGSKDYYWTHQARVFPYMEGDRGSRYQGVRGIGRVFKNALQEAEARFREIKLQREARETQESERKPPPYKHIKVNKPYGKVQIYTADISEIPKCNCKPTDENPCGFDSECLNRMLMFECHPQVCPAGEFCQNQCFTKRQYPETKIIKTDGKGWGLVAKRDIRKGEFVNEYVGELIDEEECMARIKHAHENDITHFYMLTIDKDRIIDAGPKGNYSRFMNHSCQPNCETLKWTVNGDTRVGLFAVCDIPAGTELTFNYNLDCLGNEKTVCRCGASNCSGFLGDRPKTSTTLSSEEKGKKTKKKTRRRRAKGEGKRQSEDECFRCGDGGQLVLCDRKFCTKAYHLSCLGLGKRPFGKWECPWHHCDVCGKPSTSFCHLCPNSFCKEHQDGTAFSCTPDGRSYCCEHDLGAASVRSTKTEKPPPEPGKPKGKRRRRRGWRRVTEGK

Vero [4] = assay: cells; type: functional, cell-based; conditions: Chlorocebus sabaeus
[5] = system: Streptococcus sp. 'group A'; assay: growth inhibition of control SK(-) GAS strain, dose response, counter-screen for streptokinase expression inhibitor project, luminescence, kanamycin, BacTiterGlo, confirmation (AID 1900); type: functional, organism-based
Streptokinase A = target: T2, Streptokinase A (Streptococcus pyogenes serotype M1, UniProt P10520); assay: S. pyogenes streptokinase expression inhibitors, potency, dose response, plasminogen activation absorbance, OD405 (AID 1914); type: functional, Streptococcus pyogenes M1 GAS;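 note: secreted streptokinase activity via plasminogen activation per viability signal from cell pellet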
T2 sequence (P10520 whole entry): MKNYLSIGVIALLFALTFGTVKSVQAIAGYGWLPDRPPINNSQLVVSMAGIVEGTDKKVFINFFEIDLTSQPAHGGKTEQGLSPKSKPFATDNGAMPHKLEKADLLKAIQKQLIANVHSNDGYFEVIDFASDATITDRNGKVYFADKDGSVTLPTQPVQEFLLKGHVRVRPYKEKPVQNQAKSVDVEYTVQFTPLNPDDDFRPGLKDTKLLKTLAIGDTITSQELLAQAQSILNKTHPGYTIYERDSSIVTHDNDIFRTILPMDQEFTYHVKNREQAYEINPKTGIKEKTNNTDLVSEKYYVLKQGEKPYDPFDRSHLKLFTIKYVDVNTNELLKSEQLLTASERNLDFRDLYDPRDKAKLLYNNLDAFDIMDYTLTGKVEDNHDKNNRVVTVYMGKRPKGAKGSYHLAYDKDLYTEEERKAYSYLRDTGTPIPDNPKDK

Streptococcus = assay: Group A Streptococcus viability loss, dose response, counter-screen for streptokinase expression inhibitor project, luminescence, BacTiterGlo (AID 1915); type: functional, organism-based;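 note: potency for reduction of bacterial viability or growth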
[6] = target: T3, Small ubiquitin-related modifier 1 (Homo sapiens, UniProt P63165); assay: inhibitors of SUMO1 peptide binding, dose response, biochemical, fluorescence polarization, uHTS hits (AID 624382); type: functional; conditions: read-out: IC50_Mean
[7] = target: T3, Small ubiquitin-related modifier 1; assay: inhibitors of SUMO1 partner interactions, dose response, biochemical, FRET (AID 624383); type: functional; conditions: read-out: IC50_Mean
Vero [8] = assay: cells; type: functional; conditions: Chlorocebus sabaeus
HeLa = assay: HeLa cell cytotoxicity, dose response, cytotoxicity control for MITF activator project, CellTiter-Glo luminescence, cherry-pick samples (AID 540259); type: functional, cell-based; conditions: Homo sapiens
[9] = Shn3 3'UTR reporter inhibitors, dose response, cell-based, Clone20 osteoblasts, firefly luciferase, cherry-picked (AID 624132); type: functional;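 note: firefly luciferase luminescence from reporter carrying the Shn3 3'UTR in osteoblasts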
[10] = HepG2 cell cytotoxicity, dose response, cytotoxicity control for Shn3 inhibitor project, CellTiter-Glo, cherry-picked (AID 624134); type: functional, cell-based
[11] = control 3'UTR Renilla luciferase suppression, dose response, counter-screen for Shn3 inhibitor project, cell-based, Clone20-Shn3RL, cherry-picked (AID 624133); type: functional
[12] = target: Photoreceptor-specific nuclear receptor (Homo sapiens, UniProt Q9Y5X4); type: functional, cell-based;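 note: CHO-S cells with Gal4-NCOR and VP16-NR2E3 two-hybrid luciferase reporter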
[13] = target: T4, Low molecular weight phosphotyrosine protein phosphatase (Homo sapiens, UniProt P24666); type: functional; conditions: read-out: IC50_Mean
T4 sequence (P24666 whole entry): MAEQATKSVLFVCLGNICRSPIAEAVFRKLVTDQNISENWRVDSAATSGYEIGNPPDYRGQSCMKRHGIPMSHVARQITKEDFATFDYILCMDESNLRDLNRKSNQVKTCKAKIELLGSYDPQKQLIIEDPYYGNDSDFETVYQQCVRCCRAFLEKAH

[14] = target: T4, Low molecular weight phosphotyrosine protein phosphatase; type: functional; conditions: read-out: IC50_Mean; remark: listed apart in the source
[15] = target: T5, Probable nicotinate-nucleotide adenylyltransferase (Staphylococcus aureus (strain N315), UniProt P65502); type: functional, Staphylococcus aureus subsp. aureus N315;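 for IC50 Mean: confirmatory dose-response retesting of NadD inhibitor hits first found in an ultra-high-throughput screen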
[16] = target: T5, Probable nicotinate-nucleotide adenylyltransferase; type: functional, Staphylococcus aureus subsp. aureus N315; conditions: read-out: IC50_Mean
[17] = target: Voltage-gated inwardly rectifying potassium channel KCNH2 (Homo sapiens, UniProt Q12809); conditions: Potency;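 note: confirmatory quantitative high-throughput screen measuring inhibition of hERG channel activity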
[18] = target: T6, Mannose-6-phosphate isomerase (Homo sapiens, UniProt P34949); assay: human PMI inhibitors, high substrate, primary screen, biochemical, fluorescence intensity, high mannose 6-phosphate (AID 1220)
T6 sequence (P34949 whole entry): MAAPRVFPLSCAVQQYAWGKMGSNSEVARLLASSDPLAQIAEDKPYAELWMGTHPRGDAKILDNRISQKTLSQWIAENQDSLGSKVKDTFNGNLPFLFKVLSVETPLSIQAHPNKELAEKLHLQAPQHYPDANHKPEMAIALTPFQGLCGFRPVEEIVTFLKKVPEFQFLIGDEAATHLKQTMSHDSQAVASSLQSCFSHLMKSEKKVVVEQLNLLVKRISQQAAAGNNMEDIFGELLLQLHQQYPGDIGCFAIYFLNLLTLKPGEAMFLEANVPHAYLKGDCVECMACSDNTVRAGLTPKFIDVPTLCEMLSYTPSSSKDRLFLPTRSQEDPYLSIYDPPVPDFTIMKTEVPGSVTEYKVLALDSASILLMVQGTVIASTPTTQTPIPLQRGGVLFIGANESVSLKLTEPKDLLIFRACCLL

[19] = target: Glucose-6-phosphate 1-dehydrogenase (Homo sapiens, UniProt P11413); assay: human G6PD enzyme inhibitors, dose response, selectivity assay for P. falciparum G6PD inhibitor project, biochemical, fluorescence (AID 504792); type: functional
Cysteine protease ATG4B = target: T7, Cysteine protease ATG4B (Homo sapiens, UniProt Q9Y4P1); type: functional;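 note: Fluorescence-based dose-response confirmation assay measuring inhibition of ATG4B activity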
T7 sequence (Q9Y4P1 whole entry): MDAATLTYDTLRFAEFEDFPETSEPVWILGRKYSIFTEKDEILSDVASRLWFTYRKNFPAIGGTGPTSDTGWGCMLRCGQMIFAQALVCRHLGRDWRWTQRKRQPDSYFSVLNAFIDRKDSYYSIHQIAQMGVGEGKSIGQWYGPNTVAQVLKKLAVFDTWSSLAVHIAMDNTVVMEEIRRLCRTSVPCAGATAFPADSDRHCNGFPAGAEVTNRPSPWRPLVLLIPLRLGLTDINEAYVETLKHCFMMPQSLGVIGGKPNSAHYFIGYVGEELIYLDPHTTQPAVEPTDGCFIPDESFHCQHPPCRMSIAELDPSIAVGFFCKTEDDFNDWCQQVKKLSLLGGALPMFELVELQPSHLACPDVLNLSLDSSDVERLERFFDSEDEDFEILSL

Phospholipase A2 = Phospholipase A2 (Homo sapiens, UniProt P04054); type: functional;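 note: confirmatory dose-response counterscreen on phospholipase A2, testing hits that came from an ultra-high-throughput screen for ATG4B inhibitors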
Cytochrome P450 2D6 = Cytochrome P450 2D6 (Homo sapiens, UniProt P10635);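 note: CYP2D6 member of a cytochrome P450 panel assay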
Cytochrome P450 3A4 = Cytochrome P450 3A4 (Homo sapiens, UniProt P08684);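 note: CYP3A4 tested as one member of a cytochrome P450 panel screen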
[20] = inhibitors of intracellular T. cruzi replication, confirmation, NIH3T3 host cells, beta-gal luminescence (AID 2044); type: functional, cell-based;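 note: intracellular parasites grown in NIH/3T3 mouse fibroblasts as host cells; luminescent beta-galactosidase reporter signal from transgenic T. cruzi replicating inside host cells; inhibitors lower the luminescence signal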
[21] = cytotoxicity toward NIH3T3 fibroblasts, dose response, counter-screen, cell-based, ATP luminescence, mouse fibroblasts (AID 2010); type: functional;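 note: cells exposed to compound for about 90 hours before reading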

Sequence of Phospholipase A2 (P04054 whole entry): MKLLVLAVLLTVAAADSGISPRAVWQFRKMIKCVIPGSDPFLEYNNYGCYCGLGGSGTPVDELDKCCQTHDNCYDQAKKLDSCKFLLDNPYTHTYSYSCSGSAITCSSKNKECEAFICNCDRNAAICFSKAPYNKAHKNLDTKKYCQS
Sequence of DNA (cytosine-5)-methyltransferase 1 (P26358 whole entry): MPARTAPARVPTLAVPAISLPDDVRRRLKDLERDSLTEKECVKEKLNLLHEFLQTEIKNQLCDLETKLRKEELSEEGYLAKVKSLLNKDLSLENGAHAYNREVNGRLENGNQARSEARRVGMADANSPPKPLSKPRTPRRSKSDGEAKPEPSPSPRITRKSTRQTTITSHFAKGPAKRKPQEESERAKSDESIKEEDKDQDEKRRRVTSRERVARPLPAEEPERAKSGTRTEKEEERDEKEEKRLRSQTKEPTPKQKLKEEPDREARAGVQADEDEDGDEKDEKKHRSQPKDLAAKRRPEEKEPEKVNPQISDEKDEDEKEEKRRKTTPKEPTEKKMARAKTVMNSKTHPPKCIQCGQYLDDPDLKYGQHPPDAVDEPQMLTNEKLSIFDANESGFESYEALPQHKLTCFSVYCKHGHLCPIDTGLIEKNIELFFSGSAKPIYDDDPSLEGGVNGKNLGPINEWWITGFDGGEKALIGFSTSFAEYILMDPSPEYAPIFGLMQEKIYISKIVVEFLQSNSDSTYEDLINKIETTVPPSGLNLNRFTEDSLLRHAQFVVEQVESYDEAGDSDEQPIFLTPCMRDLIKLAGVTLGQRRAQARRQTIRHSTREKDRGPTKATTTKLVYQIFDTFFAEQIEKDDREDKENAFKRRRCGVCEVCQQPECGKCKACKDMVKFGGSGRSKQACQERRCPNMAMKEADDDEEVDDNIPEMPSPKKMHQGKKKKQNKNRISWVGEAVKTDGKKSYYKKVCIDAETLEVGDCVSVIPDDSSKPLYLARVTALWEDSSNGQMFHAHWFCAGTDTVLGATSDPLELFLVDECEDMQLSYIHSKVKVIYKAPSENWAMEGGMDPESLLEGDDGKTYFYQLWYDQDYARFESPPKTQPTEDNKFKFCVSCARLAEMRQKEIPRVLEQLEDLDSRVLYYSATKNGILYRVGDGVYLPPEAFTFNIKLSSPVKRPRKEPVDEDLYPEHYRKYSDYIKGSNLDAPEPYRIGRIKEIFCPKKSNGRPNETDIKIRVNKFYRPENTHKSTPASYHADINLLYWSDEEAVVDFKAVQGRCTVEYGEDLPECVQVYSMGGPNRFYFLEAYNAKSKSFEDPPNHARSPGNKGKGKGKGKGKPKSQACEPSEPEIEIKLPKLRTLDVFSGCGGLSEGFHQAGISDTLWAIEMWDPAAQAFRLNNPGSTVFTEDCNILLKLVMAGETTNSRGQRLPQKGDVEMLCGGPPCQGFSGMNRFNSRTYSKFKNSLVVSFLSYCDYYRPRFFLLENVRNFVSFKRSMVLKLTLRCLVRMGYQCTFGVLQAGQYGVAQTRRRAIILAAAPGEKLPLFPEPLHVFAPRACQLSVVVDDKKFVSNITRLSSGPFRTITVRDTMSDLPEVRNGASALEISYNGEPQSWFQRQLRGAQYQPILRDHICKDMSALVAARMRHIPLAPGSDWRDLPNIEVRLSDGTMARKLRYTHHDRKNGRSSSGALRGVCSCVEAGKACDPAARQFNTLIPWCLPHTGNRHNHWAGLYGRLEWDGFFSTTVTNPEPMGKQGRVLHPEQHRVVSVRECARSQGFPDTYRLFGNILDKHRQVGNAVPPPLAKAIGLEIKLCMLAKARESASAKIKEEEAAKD
T3 sequence (P63165 whole entry): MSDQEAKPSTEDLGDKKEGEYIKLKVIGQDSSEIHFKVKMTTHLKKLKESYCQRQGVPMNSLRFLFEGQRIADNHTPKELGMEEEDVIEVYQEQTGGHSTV
Sequence of Photoreceptor-specific nuclear receptor (Q9Y5X4 whole entry, the tested form may be a part): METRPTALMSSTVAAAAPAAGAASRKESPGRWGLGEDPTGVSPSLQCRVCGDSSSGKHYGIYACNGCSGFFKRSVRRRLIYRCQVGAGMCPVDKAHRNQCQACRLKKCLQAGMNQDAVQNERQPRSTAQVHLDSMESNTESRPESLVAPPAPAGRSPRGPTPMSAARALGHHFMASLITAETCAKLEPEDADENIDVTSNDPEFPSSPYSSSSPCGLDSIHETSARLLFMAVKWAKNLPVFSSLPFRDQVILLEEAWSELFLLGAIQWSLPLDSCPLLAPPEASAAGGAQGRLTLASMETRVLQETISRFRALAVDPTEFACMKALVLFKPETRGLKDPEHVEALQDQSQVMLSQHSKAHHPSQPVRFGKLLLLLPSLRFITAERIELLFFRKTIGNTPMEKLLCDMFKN
T5 sequence (P65502 whole entry): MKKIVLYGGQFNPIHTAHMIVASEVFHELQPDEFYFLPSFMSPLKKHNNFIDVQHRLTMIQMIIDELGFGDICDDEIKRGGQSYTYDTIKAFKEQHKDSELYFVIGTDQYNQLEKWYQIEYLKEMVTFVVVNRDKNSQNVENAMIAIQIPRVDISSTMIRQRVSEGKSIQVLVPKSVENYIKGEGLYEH
Sequence of Voltage-gated inwardly rectifying potassium channel KCNH2 (Q12809 whole entry): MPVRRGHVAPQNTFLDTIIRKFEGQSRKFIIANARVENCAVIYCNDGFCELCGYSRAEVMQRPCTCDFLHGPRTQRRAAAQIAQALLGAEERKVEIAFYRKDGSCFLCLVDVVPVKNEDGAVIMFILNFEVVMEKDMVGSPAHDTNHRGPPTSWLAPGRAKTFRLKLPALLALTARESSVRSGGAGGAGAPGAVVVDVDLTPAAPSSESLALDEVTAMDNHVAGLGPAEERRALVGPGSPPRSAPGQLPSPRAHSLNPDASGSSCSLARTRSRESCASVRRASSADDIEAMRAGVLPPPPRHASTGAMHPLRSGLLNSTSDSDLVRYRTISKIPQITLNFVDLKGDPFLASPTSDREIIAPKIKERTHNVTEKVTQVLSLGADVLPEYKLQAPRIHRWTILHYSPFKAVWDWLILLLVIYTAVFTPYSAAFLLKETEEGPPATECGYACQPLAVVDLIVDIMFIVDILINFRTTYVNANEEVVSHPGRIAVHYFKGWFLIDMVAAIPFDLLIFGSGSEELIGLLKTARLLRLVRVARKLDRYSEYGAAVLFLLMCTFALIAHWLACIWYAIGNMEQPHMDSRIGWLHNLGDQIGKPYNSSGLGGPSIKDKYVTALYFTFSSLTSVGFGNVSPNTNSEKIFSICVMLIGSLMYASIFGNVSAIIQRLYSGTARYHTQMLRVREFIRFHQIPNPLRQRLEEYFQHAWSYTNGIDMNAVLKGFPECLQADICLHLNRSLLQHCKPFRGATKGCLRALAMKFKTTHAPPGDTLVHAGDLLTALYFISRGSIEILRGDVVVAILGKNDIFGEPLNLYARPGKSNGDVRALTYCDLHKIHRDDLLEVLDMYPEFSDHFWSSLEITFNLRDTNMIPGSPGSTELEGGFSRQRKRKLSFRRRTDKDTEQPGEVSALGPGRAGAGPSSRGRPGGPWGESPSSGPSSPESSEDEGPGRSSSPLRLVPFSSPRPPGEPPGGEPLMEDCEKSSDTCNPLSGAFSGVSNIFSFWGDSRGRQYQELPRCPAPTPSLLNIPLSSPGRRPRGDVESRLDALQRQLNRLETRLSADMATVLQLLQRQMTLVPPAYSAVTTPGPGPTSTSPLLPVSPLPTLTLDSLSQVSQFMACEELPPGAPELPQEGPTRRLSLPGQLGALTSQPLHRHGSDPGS
Sequence of Cytochrome P450 3A4 (P08684 whole entry): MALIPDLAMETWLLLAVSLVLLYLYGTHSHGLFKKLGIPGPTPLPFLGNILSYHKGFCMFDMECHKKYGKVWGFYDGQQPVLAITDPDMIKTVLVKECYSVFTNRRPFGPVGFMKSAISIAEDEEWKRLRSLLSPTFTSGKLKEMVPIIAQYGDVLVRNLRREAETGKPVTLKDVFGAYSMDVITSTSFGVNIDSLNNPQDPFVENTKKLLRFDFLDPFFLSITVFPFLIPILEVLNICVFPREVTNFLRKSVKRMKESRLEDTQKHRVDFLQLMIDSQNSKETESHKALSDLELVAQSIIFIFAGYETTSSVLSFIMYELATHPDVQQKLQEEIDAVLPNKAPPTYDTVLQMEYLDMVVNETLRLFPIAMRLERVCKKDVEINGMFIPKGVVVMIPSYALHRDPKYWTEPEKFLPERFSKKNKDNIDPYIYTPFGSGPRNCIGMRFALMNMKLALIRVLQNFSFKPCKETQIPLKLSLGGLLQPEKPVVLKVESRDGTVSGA
Sequence of Induced myeloid leukemia cell differentiation protein Mcl-1 (Q07820 whole entry): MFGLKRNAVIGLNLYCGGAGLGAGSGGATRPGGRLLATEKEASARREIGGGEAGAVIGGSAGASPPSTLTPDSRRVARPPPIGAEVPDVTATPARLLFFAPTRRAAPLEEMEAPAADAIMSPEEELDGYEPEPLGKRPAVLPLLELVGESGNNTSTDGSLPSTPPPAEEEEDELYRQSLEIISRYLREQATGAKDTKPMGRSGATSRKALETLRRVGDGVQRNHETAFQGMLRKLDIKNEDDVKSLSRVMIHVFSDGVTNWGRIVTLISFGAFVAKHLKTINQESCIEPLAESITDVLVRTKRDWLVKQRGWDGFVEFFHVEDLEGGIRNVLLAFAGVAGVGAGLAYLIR
Sequence of Cytochrome P450 2D6 (P10635 whole entry): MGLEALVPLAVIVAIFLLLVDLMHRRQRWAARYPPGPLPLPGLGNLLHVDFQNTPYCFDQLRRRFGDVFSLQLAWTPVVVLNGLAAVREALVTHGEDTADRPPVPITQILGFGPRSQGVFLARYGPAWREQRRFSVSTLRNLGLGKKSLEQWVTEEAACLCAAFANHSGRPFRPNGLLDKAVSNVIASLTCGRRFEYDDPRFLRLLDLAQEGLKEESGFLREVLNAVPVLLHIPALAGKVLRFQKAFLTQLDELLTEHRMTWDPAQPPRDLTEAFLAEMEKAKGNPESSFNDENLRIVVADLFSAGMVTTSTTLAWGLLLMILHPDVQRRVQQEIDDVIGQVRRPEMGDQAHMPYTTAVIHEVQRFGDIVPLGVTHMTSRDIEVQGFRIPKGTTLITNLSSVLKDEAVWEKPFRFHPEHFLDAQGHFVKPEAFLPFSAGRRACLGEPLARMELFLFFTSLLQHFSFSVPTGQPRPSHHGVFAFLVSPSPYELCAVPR

CCCCN1C(=O)/C(=C/C=C/c2ccco2)C(=O)NC1=S
IC50 (Large T antigen): 7.95 µM (active) | IC50 [1]: 2.18 µM (active) | IC50 [2]: 3.39 µM (active) | AC50 [3]: 4.72 µM (active)

OCC1(CCOc2ccccc2)CCN(Cc2nc3cc(F)ccc3[nH]2)CC1
IC50 (Vero [4]): 24.6 µM (active)

COc1ccc(-c2csc(NC(=S)NC(=O)c3cccs3)n2)cc1OC
EC50 [5]: 23.4 µM (active) | EC50 (Streptokinase A): > 150 µM (not active) | EC50 (Streptococcus): 74.3 µM (active) | IC50 [6]: > 66.6 µM (inactive) | IC50 [7]: 7.27 µM (active)

O=C1NC(=O)N(CCc2ccccc2)C(=O)/C1=C(O)/C=C/c1ccccc1
IC50 (Vero [4]): > 25 µM (active) | CC50 (Vero [8]): 13.3 µM (active)

Cc1nc(N2CCN(S(=O)(=O)c3ccccc3)CC2)c2cc(-c3ccccc3)sc2n1
AC50 (HeLa): > 350 µM (inactive)

NS(=O)(=O)c1ccc(CCNc2nn3c(-c4cccc(OC(F)(F)F)c4)cnc3s2)cc1
AC50 [9]: 3.93 µM (active) | AC50 [10]: 52.5 µM (active) | AC50 [11]: 0.852 µM (active) | IC50 [12]: 6.96 µM (active)

Nc1nc(N)c(Cc2ccc(Cl)cc2Cl)c(N)n1
IC50 [13]: 11.9 µM (active) | IC50 [14]: 7.44 µM (active)

NC(CSC(c1ccccc1)(c1ccccc1)c1ccc(-c2ccccc2)cc1)C(=O)O (stereo not given)
IC50 [2]: 9.65 µM (active) | IC50 [15]: 11.5 µM (active) | IC50 [16]: 24 µM (active)

CC(C)OCCCNc1nc(-c2ccccc2)nc2ccccc12
IC50 [13]: 22.9 µM (inactive) | IC50 [14]: 11.7 µM (active)

CC(=NNc1nc2ccccc2s1)c1ccncn1
IC50 (Vero [4]): > 25 µM (active) | CC50 (Vero [8]): 5.47 µM (active)

CCCN(CCC)CCc1ccc(O)c(O)c1 [DIPROPYLDOPAMINE HYDROBROMIDE]
AC50 [17]: 15.8 µM (inconclusive)

O=C(Nc1ccccc1O)c1cc2cc(Br)ccc2oc1=O
AC50 (HeLa): 221 µM (active)

CC(C)(C)CC(=O)Nc1cccc2c1CCCC2
IC50 [2]: > 99 µM (inactive)

COc1ccc(NS(=O)(=O)c2ccc(N3CCCC3)c(NC(=S)Nc3cccc(C)c3C)c2)cc1
IC50 [18]: > 50 µM (not active) | IC50 [19]: > 80 µM (inactive)

CC(=O)Nc1cc(O)c2cccnc2n1
IC50 [13]: 38.7 µM (inactive) | IC50 [14]: 25.9 µM (inactive)

CCn1cnc2c(Nc3cccc(Cl)c3)nc(C#N)nc21
AC50 (HeLa): 50 µM (active)

CCS(=O)(=O)Nc1cccc(C(=C2CCCCC2)c2c[nH]cn2)c1
AC50 [17]: 14.1 µM (inconclusive)

C#Cc1cccc(Nc2nc(NCc3ccccc3)nc3ccsc23)c1
IC50 [12]: 7.02 µM (active)

COc1ccc(C2c3c(ncn(CCCN4CCOCC4)c3=N)Oc3ccc4ccccc4c32)cc1OC (stereo not given)
IC50 (Vero [4]): 23.8 µM (active) | CC50 (Vero [8]): > 25 µM (active)

O=C(O)c1cc2c(cc1NC(=O)c1ccccc1OC(F)F)OCCCO2
IC50 (Cysteine protease ATG4B): 9.56 µM (active) | IC50 (Phospholipase A2): 6.69 µM (active)

CCCc1cc(=O)[nH]c(SCc2cc(Cl)ccc2OC(F)F)n1
IC50 (Cysteine protease ATG4B): 9.02 µM (active) | IC50 (Phospholipase A2): 9.01 µM (active) | AC50 (Cytochrome P450 2D6): 20 µM (inconclusive) | AC50 (Cytochrome P450 3A4): 1.12 µM (inconclusive)

CCOC(=O)c1sc(-c2ccccc2)cc1NC(=O)Nc1ccccc1
EC50 [20]: 3.49 µM (active) | EC50 [21]: 16.8 µM (active) | IC50 (Cysteine protease ATG4B): 21.9 µM (inactive) | IC50 (Phospholipase A2): 9.28 µM (active)

CC(C)C[C@@H](CNCC(=O)[C@H](Cc1ccccc1)NC(=O)c1nc[nH]c1C(=O)N[C@H](CN)CC(C)C)NC(=O)c1[nH]cnc1C(=O)N[C@@H](CC(=O)O)C(=O)O
IC50 [6]: > 66.6 µM (inactive) | IC50 [7]: 20.4 µM (inactive)

Reference: ChEMBL document CHEMBL1201862, “PubChem BioAssay data set” (2004)
